Results: PubChem BioAssay AID2060498 (Molecular Pharmacology Branch, DTP, NCI, 2025)

Test system: 171881-019-R-J1-PDC tumor spheroids, viability
Test: Anticancer human tumor 171881-019-R-J1-PDC patient-derived invasive breast carcinoma cell line growth inhibition [GQUAD]
Conditions: spheroids with HUVEC and MSC; for IC50: curve of first compound; for viability, T/C: stronger effect = lower value
Outline: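 Viability of tumor cells grown as complex spheroids with endothelial and stromal cells, exposed to drug combinations. Top concentration at or near clinical Cmax (else 10 microM), diluted in half-log increments.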

[1] = second compound 0.0316 µM, first compound 0.0316 µM
[2] = second compound 0.0316 µM, first compound 0.1 µM
[3] = second compound 0.0316 µM, first compound 0.316 µM
[4] = second compound 0.0316 µM, first compound 1 µM
[5] = second compound 0.0316 µM, first compound 3.16 µM
[6] = second compound 0.0316 µM, first compound 10 µM
[7] = second compound 0.1 µM, first compound 0.0316 µM
[8] = second compound 0.1 µM, first compound 0.1 µM
[9] = second compound 0.1 µM, first compound 0.316 µM
[10] = second compound 0.1 µM, first compound 1 µM
[11] = second compound 0.1 µM, first compound 3.16 µM
[12] = second compound 0.1 µM, first compound 10 µM
[13] = second compound 0.316 µM, first compound 0.0316 µM
[14] = second compound 0.316 µM, first compound 0.1 µM
[15] = second compound 0.316 µM, first compound 0.316 µM
[16] = second compound 0.316 µM, first compound 1 µM
[17] = second compound 0.316 µM, first compound 3.16 µM
[18] = second compound 0.316 µM, first compound 10 µM
[19] = second compound 1 µM, first compound 0.0316 µM
[20] = second compound 1 µM, first compound 0.1 µM
[21] = second compound 1 µM, first compound 0.316 µM
[22] = second compound 1 µM, first compound 1 µM
[23] = second compound 1 µM, first compound 3.16 µM
[24] = second compound 1 µM, first compound 10 µM
[25] = second compound 3.16 µM, first compound 0.0316 µM
[26] = second compound 3.16 µM, first compound 0.1 µM
[27] = second compound 3.16 µM, first compound 0.316 µM
[28] = second compound 3.16 µM, first compound 1 µM
[29] = second compound 3.16 µM, first compound 3.16 µM
[30] = second compound 3.16 µM, first compound 10 µM
[31] = second compound 10 µM, first compound 0.0316 µM
[32] = second compound 10 µM, first compound 0.1 µM
[33] = second compound 10 µM, first compound 0.316 µM
[34] = second compound 10 µM, first compound 1 µM
[35] = second compound 10 µM, first compound 3.16 µM
[36] = second compound 10 µM, first compound 10 µM
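Wherever viability, T/C is given: 100% = DMSO vehicle control viability.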

Nc1ccn(C2OC(CO)C(O)C2(F)F)c(=O)n1 (stereo not given) + CN(C)c1ccc(Nc2c3ccc(NC(=O)CCN4CCCC4)cc3nc3cc(NC(=O)CCN4CCCC4)ccc23)cc1
IC50 (second compound 0.0316 µM): < 31.6 nM
IC50 (second compound 0.1 µM): < 31.6 nM
IC50 (second compound 0.316 µM): < 31.6 nM
IC50 (second compound 1 µM): < 31.6 nM
IC50 (second compound 3.16 µM): < 31.6 nM
IC50 (second compound 10 µM): < 31.6 nM
viability, T/C [1]: 35.4%
viability, T/C [2]: 35.6%
viability, T/C [3]: 44.6%
viability, T/C [4]: 51%
viability, T/C [5]: 45.9%
viability, T/C [6]: 47.7%
viability, T/C [7]: 33.7%
viability, T/C [8]: 38%
viability, T/C [9]: 46.6%
viability, T/C [10]: 53%
viability, T/C [11]: 45.6%
viability, T/C [12]: 46%
viability, T/C [13]: 33%
viability, T/C [14]: 36%
viability, T/C [15]: 39.9%
viability, T/C [16]: 38.5%
viability, T/C [17]: 47.2%
viability, T/C [18]: 38.4%
viability, T/C [19]: 12.5%
viability, T/C [20]: 8.63%
viability, T/C [21]: 13.7%
viability, T/C [22]: 11.8%
viability, T/C [23]: 15%
viability, T/C [24]: 16.6%
viability, T/C [25]: 2.29%
viability, T/C [26]: 1.62%
viability, T/C [27]: 2.47%
viability, T/C [28]: 1.2%
viability, T/C [29]: 2.41%
viability, T/C [30]: 2.49%
viability, T/C [31]: 0.27%
viability, T/C [32]: 0.9%
viability, T/C [33]: 0.82%
viability, T/C [34]: 0.47%
viability, T/C [35]: 1.36%
viability, T/C [36]: 0.37%

C#Cc1c(F)ccc2cc(O)cc(-c3ncc4c(N5CC6CCC(C5)N6)nc(OCC56CCCN5CC(F)C6)nc4c3F)c12 (stereo not given) + Cc1[nH]c2ccc(F)cc2c1-c1nc2c3cccnc3c3ncccc3c2[nH]1
IC50 (second compound 0.0316 µM): 599 nM
IC50 (second compound 0.1 µM): 573 nM
IC50 (second compound 0.316 µM): 282 nM
IC50 (second compound 1 µM): 44.9 nM
IC50 (second compound 3.16 µM): < 31.6 nM
IC50 (second compound 10 µM): < 31.6 nM
viability, T/C [1]: 103%
viability, T/C [2]: 69.3%
viability, T/C [3]: 60.6%
viability, T/C [4]: 42.9%
viability, T/C [5]: 24.6%
viability, T/C [6]: 7.54%
viability, T/C [7]: 92.8%
viability, T/C [8]: 75.1%
viability, T/C [9]: 59%
viability, T/C [10]: 41.2%
viability, T/C [11]: 25.1%
viability, T/C [12]: 6.93%
viability, T/C [13]: 82.7%
viability, T/C [14]: 62.3%
viability, T/C [15]: 46.7%
viability, T/C [16]: 31%
viability, T/C [17]: 30%
viability, T/C [18]: 4.2%
viability, T/C [19]: 55.6%
viability, T/C [20]: 39.8%
viability, T/C [21]: 36.8%
viability, T/C [22]: 23.4%
viability, T/C [23]: 22.9%
viability, T/C [24]: 0.29%
viability, T/C [25]: 6.7%
viability, T/C [26]: 3.48%
viability, T/C [27]: 3.47%
viability, T/C [28]: 2.21%
viability, T/C [29]: 1.89%
viability, T/C [30]: 0.17%
viability, T/C [31]: 23.8%
viability, T/C [32]: 27.4%
viability, T/C [33]: 15.8%
viability, T/C [34]: 15%
viability, T/C [35]: 6.1%
viability, T/C [36]: 0.16%

CCc1c2c(nc3ccc(O)cc13)-c1cc3c(c(=O)n1C2)COC(=O)[C@]3(O)CC + Cc1cnc(CNC(=O)c2c(=O)c3ccc(N4CCCN(C)CC4)nc3n3c2sc2ccccc23)cn1
IC50 (second compound 0.0316 µM): 2.09 nM
IC50 (second compound 0.1 µM): 3.31 nM
IC50 (second compound 0.316 µM): 5.81 nM
IC50 (second compound 1 µM): 8.53 nM
IC50 (second compound 3.16 µM): 7.26 nM
IC50 (second compound 10 µM): 5.9 nM
viability, T/C (second compound 0.0316 µM, first compound 0.000999 µM): 62.6%
viability, T/C (second compound 0.0316 µM, first compound 0.00316 µM): 39.1%
viability, T/C (second compound 0.0316 µM, first compound 0.00999 µM): 36.5%
viability, T/C [1]: 30.9%
viability, T/C (second compound 0.0316 µM, first compound 0.0999 µM): 26.2%
viability, T/C [3]: 19.9%
viability, T/C (second compound 0.1 µM, first compound 0.000999 µM): 57.7%
viability, T/C (second compound 0.1 µM, first compound 0.00316 µM): 49.3%
viability, T/C (second compound 0.1 µM, first compound 0.00999 µM): 43.5%
viability, T/C [7]: 35.3%
viability, T/C (second compound 0.1 µM, first compound 0.0999 µM): 26.4%
viability, T/C [9]: 20.2%
viability, T/C (second compound 0.316 µM, first compound 0.000999 µM): 61.6%
viability, T/C (second compound 0.316 µM, first compound 0.00316 µM): 55.5%
viability, T/C (second compound 0.316 µM, first compound 0.00999 µM): 46.1%
viability, T/C [13]: 35.5%
viability, T/C (second compound 0.316 µM, first compound 0.0999 µM): 27.7%
viability, T/C [15]: 18.8%
viability, T/C (second compound 1 µM, first compound 0.000999 µM): 60.3%
viability, T/C (second compound 1 µM, first compound 0.00316 µM): 53.2%
viability, T/C (second compound 1 µM, first compound 0.00999 µM): 51.6%
viability, T/C [19]: 34.3%
viability, T/C (second compound 1 µM, first compound 0.0999 µM): 24%
viability, T/C [21]: 15.8%
viability, T/C (second compound 3.16 µM, first compound 0.000999 µM): 60.8%
viability, T/C (second compound 3.16 µM, first compound 0.00316 µM): 50.1%
viability, T/C (second compound 3.16 µM, first compound 0.00999 µM): 52.9%
viability, T/C [25]: 35.4%
viability, T/C (second compound 3.16 µM, first compound 0.0999 µM): 26%
viability, T/C [27]: 13.8%
viability, T/C (second compound 10 µM, first compound 0.000999 µM): 52.3%
viability, T/C (second compound 10 µM, first compound 0.00316 µM): 55.1%
viability, T/C (second compound 10 µM, first compound 0.00999 µM): 47.4%
viability, T/C [31]: 37.3%
viability, T/C (second compound 10 µM, first compound 0.0999 µM): 24.8%
viability, T/C [33]: 12.6%

O=C(c1cc(Cc2n[nH]c(=O)c3ccccc23)ccc1F)N1CCN(C(=O)C2CC2)CC1 + Cc1cnc(CNC(=O)c2c(=O)c3ccc(N4CCCN(C)CC4)nc3n3c2sc2ccccc23)cn1
IC50 (second compound 0.0316 µM): > 10000 nM
IC50 (second compound 0.1 µM): > 10000 nM
IC50 (second compound 0.316 µM): > 10000 nM
IC50 (second compound 1 µM): > 10000 nM
IC50 (second compound 3.16 µM): > 10000 nM
IC50 (second compound 10 µM): > 10000 nM
viability, T/C [1]: 97.3%
viability, T/C [2]: 93.3%
viability, T/C [3]: 87%
viability, T/C [4]: 87.1%
viability, T/C [5]: 80.9%
viability, T/C [6]: 75.1%
viability, T/C [7]: 79.9%
viability, T/C [8]: 82.7%
viability, T/C [9]: 76.3%
viability, T/C [10]: 68.4%
viability, T/C [11]: 64.1%
viability, T/C [12]: 62%
viability, T/C [13]: 70.1%
viability, T/C [14]: 69.8%
viability, T/C [15]: 71.3%
viability, T/C [16]: 65%
viability, T/C [17]: 67.8%
viability, T/C [18]: 58.2%
viability, T/C [19]: 66.6%
viability, T/C [20]: 61.5%
viability, T/C [21]: 68.9%
viability, T/C [22]: 58.6%
viability, T/C [23]: 64.1%
viability, T/C [24]: 57.8%
viability, T/C [25]: 59.4%
viability, T/C [26]: 55.4%
viability, T/C [27]: 64.6%
viability, T/C [28]: 56.5%
viability, T/C [29]: 55.3%
viability, T/C [30]: 55.7%
viability, T/C [31]: 54.3%
viability, T/C [32]: 60.4%
viability, T/C [33]: 57.9%
viability, T/C [34]: 55.5%
viability, T/C [35]: 59.3%
viability, T/C [36]: 55.4%

Cc1cccc(N(C)C(=O)C2C(O)CCN2c2nc(C)cc(C(F)(F)F)c2C#N)c1 (stereo not given) + Cc1[nH]c2ccc(F)cc2c1-c1nc2c3cccnc3c3ncccc3c2[nH]1
IC50 (second compound 0.0316 µM): > 10000 nM
IC50 (second compound 0.1 µM): > 10000 nM
IC50 (second compound 0.316 µM): > 10000 nM
IC50 (second compound 1 µM): > 10000 nM
IC50 (second compound 3.16 µM): < 31.6 nM
IC50 (second compound 10 µM): 3920 nM
viability, T/C [1]: 113%
viability, T/C [2]: 94.4%
viability, T/C [3]: 95.6%
viability, T/C [4]: 95.9%
viability, T/C [5]: 100%
viability, T/C [6]: 69%
viability, T/C [7]: 105%
viability, T/C [8]: 106%
viability, T/C [9]: 93.7%
viability, T/C [10]: 90.3%
viability, T/C [11]: 81.9%
viability, T/C [12]: 77.8%
viability, T/C [13]: 97.4%
viability, T/C [14]: 95.3%
viability, T/C [15]: 91.9%
viability, T/C [16]: 91.4%
viability, T/C [17]: 102%
viability, T/C [18]: 80.7%
viability, T/C [19]: 91.7%
viability, T/C [20]: 77.7%
viability, T/C [21]: 91.8%
viability, T/C [22]: 74.6%
viability, T/C [23]: 90.5%
viability, T/C [24]: 79%
viability, T/C [25]: 23.7%
viability, T/C [26]: 18.9%
viability, T/C [27]: 30.2%
viability, T/C [28]: 25.2%
viability, T/C [29]: 20.3%
viability, T/C [30]: 22.3%
viability, T/C [31]: 47.4%
viability, T/C [32]: 59%
viability, T/C [33]: 48.1%
viability, T/C [34]: 60.5%
viability, T/C [35]: 48.8%
viability, T/C [36]: 44.3%
